This passage reports IC50 results from patent US20150376198A1, “MODULATORS OF VASOPRESSIN RECEPTORS WITH THERAPEUTIC POTENTIAL” (priority 2013, published 2015).

pIC50: −log10 of the molar value. Where two headings read alike, the source gives them in different places.

Broadly, the pIC50 is −log10 of the IC50, conventionally taken in molar units.

In this assay the target is human Arginine Vasopressin Receptor 1a (AVPR1a) (Homo sapiens, UniProt P37288). As to the kind of experiment: cell-based.
Sequence of human Arginine Vasopressin Receptor 1a (AVPR1a) (P37288 whole entry): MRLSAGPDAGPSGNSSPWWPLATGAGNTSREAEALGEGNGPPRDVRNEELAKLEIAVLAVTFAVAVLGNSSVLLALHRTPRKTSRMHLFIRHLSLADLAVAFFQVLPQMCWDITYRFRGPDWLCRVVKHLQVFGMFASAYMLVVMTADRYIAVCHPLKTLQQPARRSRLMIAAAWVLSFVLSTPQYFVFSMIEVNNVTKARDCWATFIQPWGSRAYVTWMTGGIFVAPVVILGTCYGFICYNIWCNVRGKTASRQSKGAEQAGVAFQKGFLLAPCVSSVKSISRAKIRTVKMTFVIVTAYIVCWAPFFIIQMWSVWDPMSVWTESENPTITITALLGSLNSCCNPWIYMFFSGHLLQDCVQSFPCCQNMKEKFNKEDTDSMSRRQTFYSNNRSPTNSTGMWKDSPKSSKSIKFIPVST

Consider `Cc1nc(N2CCC(C(=O)N(CC3CC3)c3ccc(Cl)cc3)CC2)c2ccccc2n1` [Compound 191], for which the pIC50 (read-out: V1a-R IC50) is 7.13.

Regarding `O=C(N1CCN(c2ncccn2)CC1)N1CCCCc2cc(Cl)ccc21` [Compound 123], under “read-out: V1a-R IC50”, the pIC50 was 6.59.

As for `Cc1cc(N2CCC(C(=O)N(CC3CC3)c3ccc(Cl)cc3)CC2)nc(C)n1` [Compound 192], under “read-out: V1a-R IC50”, the pIC50 is 5.90.

For `N#CC1(c2ccccc2)CCN(C(=O)N2CCCCc3cc(Cl)ccc32)CC1` [Compound 134], the pIC50 was 6.45.

Take `Cc1cc(C)nc(N2CCC(C(=O)N3CCCC(O)c4cc(Cl)ccc43)CC2)n1` (stereo not shown) [Compound 195]: the pIC50 (read-out: V1a-R IC50) was 7.59.

In the case of `O=C(N1CCN(c2nccs2)CC1)N1CCCCc2cc(Cl)ccc21` [Compound 127], the pIC50 (read-out: V1a-R IC50) was 6.57.

Turning to `O=C(c1c(F)cccc1F)N1CCC(C(=O)N2CCCCc3cc(Cl)ccc32)CC1` [Compound 92], the pIC50 (read-out: V1a-R IC50) was 5.77.

`Cc1nc(N2CCC(C(=O)N(CC3CC3)c3ccc(Cl)cc3)CC2)ncc1F` [Compound 189]: for the setting “read-out: V1a-R IC50”, the pIC50 was 7.32.

Turning to `O=C(C1CCN(C(=O)C23CC4CC(CC(C4)C2)C3)CC1)N1CCCCc2cc(Cl)ccc21` [Compound 81], the pIC50 (read-out: V1a-R IC50) is 5.09.

As to `COc1ccnc(N2CCC(C(=O)N(CC3CC3)c3ccc(Cl)cc3)CC2)n1` [Compound 172], the pIC50 (read-out: V1a-R IC50) is 7.77.

`O=C(C1CCN(c2ccnc(Cl)c2)CC1)N1CCCCc2cc(Cl)ccc21` [Compound 176]: for the setting “read-out: V1a-R IC50”, the pIC50 is 6.67.

`O=C(C1CCN(c2ccc(C(F)(F)F)cn2)CC1)N(CC1CC1)c1ccc(Cl)cc1` [Compound 145]: the pIC50 (read-out: V1a-R IC50) is 6.91.

As for `CCC(CC)N(C(=O)C1CCN(c2nc(C)cc(C)n2)CC1)c1ccc(Cl)cc1` [Compound 228], for the setting “read-out: V1a-R IC50”, the pIC50 is 5.31.

Take `O=C(c1cc(F)cc(F)c1)N1CCC(C(=O)N2CCCCc3cc(Cl)ccc32)CC1` [Compound 116]: where the note is “read-out: V1a-R IC50”, the pIC50 is 5.80.

In the case of `Cc1cc(C)nc(N2CCC(C(=O)N3CCCC(C)(O)c4cc(Cl)ccc43)CC2)n1` (stereo not shown) [Compound 197], where the note is “read-out: V1a-R IC50”, the pIC50 is 6.87.

Take `Cc1cccc(N2CCC(C(=O)N(CC3CC3)c3ccc(Cl)cc3)CC2)n1` [Compound 150]: the pIC50 (read-out: V1a-R IC50) was 7.64.

As to `O=C(c1cccc(C(F)(F)F)c1)N1CCC(C(=O)N2CCCCc3cc(Cl)ccc32)CC1` [Compound 88], the pIC50 (read-out: V1a-R IC50) was 6.23.

On to `Cc1cc(N2CCC(C(=O)N3CCCCc4cc(Cl)ccc43)CC2)nc(C)n1` [Compound 186], for which the pIC50 (read-out: V1a-R IC50) is 6.39.

`O=C(C1CCN(c2ncc(C(F)(F)F)cn2)CC1)N(CC1CC1)c1ccc(Cl)cc1` [Compound 203]: the pIC50 (read-out: V1a-R IC50) was 6.24.

Regarding `O=C(N1CCN(c2ccccc2Cl)CC1)N1CCCCc2cc(Cl)ccc21` [Compound 139], the pIC50 (read-out: V1a-R IC50) was 7.46.

On to `O=C(C1CCN(c2ncc(F)cn2)CC1)N1CCCCc2cc(Cl)ccc21` [Compound 162], for which the pIC50 (read-out: V1a-R IC50) is 7.46.

`O=C(C1CCN(c2cc(C(F)(F)F)ccn2)CC1)N1CCCCc2cc(Cl)ccc21` [Compound 178]: under “read-out: V1a-R IC50”, the pIC50 is 7.77.

For the compound `O=C(N1CCN(c2ccc(C(F)(F)F)cc2)CC1)N1CCCCc2cc(Cl)ccc21` [Compound 132], the pIC50 (read-out: V1a-R IC50) is 7.54.

For the compound `O=C(C1CCN(c2ncc(Cl)cn2)CC1)N(CC1CC1)c1ccc(Cl)cc1` [Compound 167], the negative logarithm of the IC50 (pIC50) (read-out: V1a-R IC50) was 6.71.

As to `O=C(C1CCN(c2ncc3ccccc3n2)CC1)N1CCCCc2cc(Cl)ccc21` [Compound 211], where the note is “read-out: V1a-R IC50”, the pIC50 was 7.80.

As for `Cc1cc(C)nc(N2CCC(C(=O)N(CC3CCC3)c3ccc(Cl)cc3)CC2)n1` [Compound 200], the pIC50 (read-out: V1a-R IC50) was 6.64.

Turning to `O=C(C1CCN(c2ncccc2Cl)CC1)N(CC1CC1)c1ccc(Cl)cc1` [Compound 144], for the setting “read-out: V1a-R IC50”, the negative logarithm of the IC50 (pIC50) is 7.64.

As for `O=C(c1ccncc1)N1CCC(C(=O)N2CCCCc3cc(Cl)ccc32)CC1` [Compound 93], the pIC50 (read-out: V1a-R IC50) is 5.24.

Compound `Cc1ccc(N2CCC(C(=O)N(CC3CC3)c3ccc(Cl)cc3)CC2)nc1` [Compound 149] showed a pIC50 of 7.70.

For the compound `N#Cc1ccc(C(=O)N2CCC(C(=O)N3CCCCc4cc(Cl)ccc43)CC2)cc1` [Compound 113], the pIC50 (read-out: V1a-R IC50) is 5.24.

On to `O=C(C1CCN(c2nc3ccc(Cl)cc3o2)CC1)N1CCCCc2cc(Cl)ccc21` [Compound 214], for which the pIC50 (read-out: V1a-R IC50) was 7.35.

Regarding `O=C(C1CCN(c2nc3ccccc3o2)CC1)N(CC1CC1)c1ccc(Cl)cc1` [Compound 206], for the setting “read-out: V1a-R IC50”, the pIC50 is 6.89.

On to `O=C(c1ccc(C(F)(F)F)cc1)N1CCC(C(=O)N2CCCCc3cc(Cl)ccc32)CC1` [Compound 87], for which the negative logarithm of the IC50 (pIC50) (read-out: V1a-R IC50) is 5.73.

Turning to `Cc1ccc(Cl)cc1N1CCN(C(=O)N2CCCCc3cc(Cl)ccc32)CC1` [Compound 130], the pIC50 (read-out: V1a-R IC50) is 6.55.

In the case of `O=C(c1cc2ccccc2[nH]1)N1CCC(C(=O)N2CCCCc3cc(Cl)ccc32)CC1` [Compound 121], the pIC50 (read-out: V1a-R IC50) is 6.35.

As for `N#Cc1ccc(N2CCC(C(=O)N(CC3CC3)c3ccc(Cl)cc3)CC2)nc1` [Compound 153], the pIC50 (read-out: V1a-R IC50) was 6.10.

With `O=C(N1CCN(c2ccccc2)CC1)N1CCCCc2cc(Cl)ccc21` [Compound 128], the pIC50 (read-out: V1a-R IC50) was 7.57.

Turning to `O=C(c1ccc(Cl)cc1)N1CCC(C(=O)N2CCCCc3cc(Cl)ccc32)CC1` [Compound 86], the pIC50 (read-out: V1a-R IC50) was 6.08.

As to `O=C(C1CCN(c2ncc(Cl)cn2)CC1)N1CCCCc2cc(Cl)ccc21` [Compound 164], the pIC50 (read-out: V1a-R IC50) is 7.25.

For the compound `CCc1cnc(N2CCC(C(=O)N(CC3CC3)c3ccc(Cl)cc3)CC2)nc1` [Compound 188], for the setting “read-out: V1a-R IC50”, the pIC50 was 6.64.

As for `N#Cc1cccnc1N1CCC(C(=O)N(CC2CC2)c2ccc(Cl)cc2)CC1` [Compound 142], under “read-out: V1a-R IC50”, the pIC50 is 7.17.

Regarding `O=C(C1CCN(c2ncc3c(n2)CCC3)CC1)N1CCCCc2cc(Cl)ccc21` [Compound 215], the pIC50 (read-out: V1a-R IC50) was 8.15.

Take `N#Cc1cccnc1N1CCC(C(=O)N2CCCCc3cc(Cl)ccc32)CC1` [Compound 111]: the pIC50 (read-out: V1a-R IC50) was 6.89.

With `O=C(N1CCN(c2cc(Cl)cc(Cl)c2)CC1)N1CCCCc2cc(Cl)ccc21` [Compound 129], the pIC50 (read-out: V1a-R IC50) is 6.69.

Turning to `Cc1cc(Cl)cnc1N1CCC(C(=O)N(CC2CC2)c2ccc(Cl)cc2)CC1` [Compound 217], the pIC50 (read-out: V1a-R IC50) is 7.30.

Regarding `O=C(C1CCN(c2ncc(Cl)cc2F)CC1)N1CCCCc2cc(Cl)ccc21` [Compound 223], the negative logarithm of the IC50 (pIC50) (read-out: V1a-R IC50) was 7.72.

As for `Cc1cc(Cl)cnc1N1CCC(C(=O)N2CCCCc3cc(Cl)ccc32)CC1` [Compound 221], the pIC50 (read-out: V1a-R IC50) is 8.15.

Consider `Cc1cc(C)nc(N2CCC(C(=O)N3CCCCc4cc(Cl)ccc43)CC2)n1` [Compound 165], for which the pIC50 (read-out: V1a-R IC50) is 8.70.

Regarding `N#Cc1cccnc1N1CCN(C(=O)N(CC2CC2)c2ccc(Cl)cc2)CC1` [Compound 159], the pIC50 (read-out: V1a-R IC50) was 7.09.

Consider `Cc1cnc(N2CCC(C(=O)N(CC3CC3)c3ccc(Cl)cc3)CC2)c(F)c1` [Compound 218], for which, for the setting “read-out: V1a-R IC50”, the pIC50 is 7.70.

For `O=C(C1CCN(c2nc3ccccc3o2)CC1)N1CCCCc2cc(Cl)ccc21` [Compound 213], for the setting “read-out: V1a-R IC50”, the pIC50 was 7.62.

`O=C(C1CCN(c2ccccn2)CC1)N1CCCCc2cc(Cl)ccc21` [Compound 109]: the negative-log IC50 (pIC50) (read-out: V1a-R IC50) was 8.30.

For the compound `O=C(N1CCN(c2ncccc2C(F)(F)F)CC1)N1CCCCc2cc(Cl)ccc21` [Compound 126], the pIC50 (read-out: V1a-R IC50) was 7.27.

With `O=C(C1CCN(c2ncc(C3CC3)cn2)CC1)N1CCCCc2cc(Cl)ccc21` [Compound 209], under “read-out: V1a-R IC50”, the pIC50 was 7.16.

On to `Cc1cncc(C(=O)N2CCC(C(=O)N3CCCCc4cc(Cl)ccc43)CC2)c1` [Compound 117], for which the pIC50 (read-out: V1a-R IC50) was 5.94.
